This is an account of results in patent US20150105252A1, “SUBSTITUTED PYRAZOLES AS HERBICIDES” (E I DU PONT DE NEMOURS AND COMPANY, priority 2013, published 2015).

Experiment [1] concerns barnyardgrass. Description: Test C postemergence. It is filed as in vivo, Echinochloa crus-galli. An excerpt:
(§1) Seeds of plant species selected from blackgrass (Alopecurus myosuroides), ryegrass, Italian (Italian ryegrass, Lolium multiflorum), wheat (winter wheat, Triticum aestivum), galium (catchweed bedstraw, Galium aparine), corn (Zea mays), crabgrass, large (large crabgrass, Digitaria sanguinalis), foxtail, giant (giant foxtail, Setaria faberii), johnsongrass (Sorghum halepense), lambsquarters (Chenopodium album), morningglory (Ipomoea coccinea), nutsedge, yellow (yellow nutsedge, Cyperus esculentus), pigweed (redroot pigweed, Amaranthus retroflexus), ragweed (common ragweed, Ambrosia elation), soybean (Glycine max), barnyardgrass (Echinochloa crus-galli), oilseed rape (Brassica napus), waterhemp (common waterhemp, Amaranthus rudis), oat, wild (wild oat, Avena fatua), kochia (Kochia scoparia), Surinam grass (Brachiaria decumbens), foxtail, green (green foxtail, Setaria viridis), goosegrass (Eleusine indica), bromegrass, downy (downy bromegrass, Bromus tectorum), nightshade (eastern black nightshade, Solanum ptycanthum), cocklebur (common cocklebur, Xanthium strumarium), cupgrass, woolly (woolly cupgrass, Eriochloa villosa), bermudagrass (Cynodon dactylon), sunflower, (common oilseed sunflower, Helianthus annuus), Russian thistle (Salsola kali), and velvetleaf (Abutilon theophrasti) were planted into a blend of loam soil and sand and treated preemergence with test chemicals formulated in a non-phytotoxic solvent mixture which included a surfactant.
(§2) At the same time, plants selected from these crop and weed species and also chickweed (common chickweed, Stellaria media), canarygrass (littleseed canarygrass, Phalaris minor), and deadnettle (henbit deadnettle, Lamium amplexicaule), were planted in pots containing Redi-Earth® planting medium (Scotts Company, 14111 Scottslawn Road, Marysville, Ohio 43041) comprising spaghnum peat moss, vermiculite, wetting agent and starter nutrients and treated with postemergence applications of test chemicals formulated in the same manner. Plants ranged in height from 2 to 18 cm (1- to 4-leaf stage) for postemergence treatments. Treated plants and controls were maintained in a greenhouse for 13 to 15 days, after which time all species were compared to controls and visually evaluated. Plant response ratings, summarized in Table C, are based on a scale of 0 to 100 where 0 is no effect and 100 is complete control. A dash (-) response means no test result.

The subject of experiment [2] is crabgrass, large. Nature of the experiment: Test C postemergence. It is filed as in vivo, Digitaria sanguinalis.
From the text: as §1, §2

Experiment [3] concerns oat, wild. Nature of the experiment: Test C postemergence. It is filed as in vivo, Avena fatua.
From the text: as §1, §2

Experiment [4] deals with galium. Description: Test C postemergence. The experiment is classed as in vivo, Galium aparine.
From the text: as §1, §2

Experiment [5] deals with blackgrass. Description: Test C postemergence. The experiment is classed as in vivo, Alopecurus myosuroides.
From the text: as §1, §2

Experiment [6] relates to morningglory. Description: Test C postemergence. It is filed as in vivo, Ipomoea coccinea.
From the text: as §1, §2

The test system of experiment [7] is wheat. Nature of the experiment: Test C postemergence. Particulars: for Wheat plant response rating: scale 0 to 100. It is filed as in vivo, Triticum aestivum.
From the text: as §1, §2

Experiment [8] deals with kochia. Description: Test C postemergence. The experiment is classed as in vivo, Kochia scoparia.
From the text: as §1, §2

The subject of experiment [9] is lambsquarters. Nature of the experiment: Test C postemergence. It is filed as in vivo, Chenopodium album. Particulars: postemergence.
From the text: as §1, §2

Experiment [10] deals with chickweed. Nature of the experiment: Test C postemergence. It is filed as in vivo, Stellaria media.
From the text: as §1, §2

For experiment [11], the system named is pigweed. Description: Test C postemergence. The experiment is classed as in vivo, Amaranthus retroflexus.
From the text: as §1, §2

The subject of experiment [12] is velvetleaf. Nature of the experiment: Test C postemergence. The experiment is classed as in vivo, Abutilon theophrasti. To be noted: for Velvetleaf plant response rating: scale 0 to 100.
From the text: as §1, §2

Experiment [13] deals with waterhemp. Description: Test C postemergence. The experiment is classed as in vivo, Amaranthus rudis. To be noted: for Waterhemp plant response rating: scale 0 to 100.
From the text: as §1, §2

The subject of experiment [14] is lambsquarters. Nature of the experiment: Test C preemergence. The experiment is classed as in vivo, Chenopodium album.
From the text: as §1, §2

The mark [15] stands for this setting: Postemergence, 31 g ai/ha, visually evaluated after 13 to 15 days.
[16] abbreviates: postemergence, 62 g ai/ha, scale 0 to 100.
Where [17] appears, read: postemergence, 250 g ai/ha, scale 0 to 100 (0 no effect, 100 complete control).
The mark [18] stands for this setting: postemergence, 125 g ai/ha, scale 0 to 100, 0 no effect, 100 complete control.
Where [19] appears, read: preemergence, 62 g ai/ha, scale 0 to 100 (0 no effect, 100 complete control), 13 to 15 days.
[20] abbreviates: preemergence, 125 g ai/ha, 13 to 15 days, scale 0 to 100, 0 = no effect, 100 = complete control.
[21] abbreviates: preemergence, 250 g ai/ha, scale 0 to 100, 0 is no effect, 100 is complete control.

As for `CCCc1cc(C(=O)NCC(F)(F)F)nn1Cc1cc(C(F)(F)F)nn1C` [Compound 138], in [1] (setting [15]), the “Plant response rating (scale of 0 to 100 where 0 is no effect and 100 is complete control), Barnyardgrass” value was 10. Also, the “Barnyardgrass plant response rating” value in experiment [1] (setting [16]) is reported as 25. In addition, the results for the “Plant response rating, Barnyardgrass” value in [1] (setting [17]) and in [1] (setting [18]) were 65 and 20, respectively. For the same molecule, the “Plant response rating (scale of 0 to 100 where 0 is no effect and 100 is complete control), Crabgrass, Large” value in [2] (setting [15]) is given as 5. The “Crabgrass, Large plant response rating” value in [2] (setting [16]) is reported as 5. The “Plant response rating, Crabgrass, Large” value in experiment [2] (setting [17]) amounted to 70; in experiment [2] (setting [18]), 30. Moreover, the “Plant response rating (scale of 0 to 100 where 0 is no effect and 100 is complete control), Oat, Wild” value in [3] (setting [15]) came out at 10. For the same molecule, the “Oat, Wild plant response rating” value in experiment [3] (setting [16]) stood at 20. The “Plant response rating, Oat, Wild” value in [3] (setting [17]) came to 30; in [3] (setting [18]) it was 10. For the same molecule, in experiment [4] (setting [15]), the “Plant response rating (scale of 0 to 100 where 0 is no effect and 100 is complete control), Galium” value was 65. Further, the “Galium plant response rating” value in [4] (setting [16]) was 70. Further, the entries for the “Plant response rating, Galium” value in experiment [4] (setting [17]) and in experiment [4] (setting [18]) were 80 and 75, respectively. Further, in experiment [5] (setting [15]), the “Plant response rating (scale of 0 to 100 where 0 is no effect and 100 is complete control), Blackgrass” value is 5. Further, the “Blackgrass plant response rating” value in experiment [5] (setting [16]) amounted to 10. Moreover, the “Plant response rating, Blackgrass” value was 50 in experiment [5] (setting [17]) and 20 in [5] (setting [18]). Further, the “Plant response rating (scale of 0 to 100 where 0 is no effect and 100 is complete control), Morningglory” value in experiment [6] (setting [15]) amounted to 60. Moreover, in experiment [6] (setting [16]), the “Morningglory plant response rating” value is on record as 85. Moreover, the “Plant response rating, Morningglory” value in experiment [6] (setting [17]) worked out at 95; in experiment [6] (setting [18]) it was 85. Also, in [7] (setting [15]), the “Plant response rating (scale of 0 to 100 where 0 is no effect and 100 is complete control), Wheat” value was 5. Besides, the “Wheat plant response rating” value is given as 5 in [7] (postemergence, 62 g ai/ha) and 15 in [7] (postemergence). For the same molecule, in [7] (setting [17]), the “Plant response rating, Wheat” value is reported as 15. The “Plant response rating (scale of 0 to 100 where 0 is no effect and 100 is complete control), Kochia” value in experiment [8] (setting [15]) worked out at 100. Moreover, the “Kochia plant response rating” value in experiment [8] (setting [16]) is listed as 90. Also, the “Plant response rating, Kochia” value in experiment [8] (setting [17]) and in experiment [8] (setting [18]) was 90 in each case. For the same molecule, the “Lambsquarters plant response rating” value in experiment [9] (62 g ai/ha, scale 0 to 100) worked out at 40. Also, the “Plant response rating, Lambsquarters” value in [9] (250 g ai/ha, scale 0 to 100 (0 no effect, 100 complete control)) was determined as 95; in experiment [9] (125 g ai/ha, scale 0 to 100, 0 no effect, 100 complete control), 75. The “Plant response rating (scale of 0 to 100 where 0 is no effect and 100 is complete control), Chickweed” value in [10] (setting [15]) is 70. In [10] (setting [16]), the “Chickweed plant response rating” value came out at 80. Further, the results for the “Plant response rating, Chickweed” value in [10] (setting [17]) and in experiment [10] (setting [18]) were 90 and 80, respectively. The “Plant response rating (scale of 0 to 100 where 0 is no effect and 100 is complete control), Pigweed” value in [11] (setting [15]) worked out at 75. Besides, the “Pigweed plant response rating” value in experiment [11] (setting [16]) turned out to be 85. The “Plant response rating, Pigweed” value in [11] (setting [17]) was 85; in experiment [11] (setting [18]), 80. Moreover, in [12] (setting [15]), the “Plant response rating (scale of 0 to 100 where 0 is no effect and 100 is complete control), Velvetleaf” value worked out at 30. Further, the “Velvetleaf plant response rating” value came out at 40 in experiment [12] (postemergence, 62 g ai/ha) and 25 in experiment [12] (postemergence). Moreover, in [12] (setting [17]), the “Plant response rating, Velvetleaf” value came to 50. For the same molecule, the “Plant response rating (scale of 0 to 100 where 0 is no effect and 100 is complete control), Waterhemp” value in experiment [13] (setting [15]) is reported as 75. The “Waterhemp plant response rating” value is listed as 70 in [13] (postemergence, 62 g ai/ha) and 100 in [13] (postemergence). Further, in experiment [13] (setting [17]), the “Plant response rating, Waterhemp” value stood at 95.
Consider `CCNC(=O)c1cc(CCCl)n(Cc2ccnc(C(F)(F)F)c2)n1` [Compound 179], for which the “Lambsquarters plant response rating” value is given as 90 in experiment [14] (preemergence, 31 g ai/ha, visual rating, scale 0 to 100 (0 no effect, 100 complete control), 13 to 15 days); 100 in experiment [14] (setting [19]); 100 in experiment [14] (setting [21]). Further, the “Plant response rating, Lambsquarters” value in [14] (setting [20]) stood at 100.
Regarding `CCc1cc(C(=O)NC2CC2)nn1Cc1cc(C(F)(F)C(F)(F)F)nn1C` [Compound 226], the “Plant response rating, Lambsquarters” value in experiment [14] (Preemergence, rate head not shown (block before 16 g ai/ha), scale 0 to 100) is on record as 100; in [14] (setting [20]), 100. For the same molecule, the “Lambsquarters plant response rating” value in experiment [14] (setting [19]) and in [14] (setting [21]) was 100 in each case.
